Reference: ChEMBL document CHEMBL4033666, “Synthesis and mechanistic evaluation of novel N'-benzylidene-carbohydrazide-1H-pyrazolo[3,4-b]pyridine derivatives as non-anionic antiplatelet agents” (Eur J Med Chem, 2017)
Calls of active or inactive are those of the source. Unless noted, the rule behind the calls is not given here.

Key:
[1] = target: T1, Prostaglandin G/H synthase 1 (Ovis aries, UniProt P05979); assay: Inhibition of ovine COX-1 assessed as reduction in PGH2 production using arachidonic acid as substrate preincubated for 5 mins followed by substrate and hematin addition measured after 2 mins by ELISA relative to control; conditions: sheep
T1 sequence (P05979 whole entry): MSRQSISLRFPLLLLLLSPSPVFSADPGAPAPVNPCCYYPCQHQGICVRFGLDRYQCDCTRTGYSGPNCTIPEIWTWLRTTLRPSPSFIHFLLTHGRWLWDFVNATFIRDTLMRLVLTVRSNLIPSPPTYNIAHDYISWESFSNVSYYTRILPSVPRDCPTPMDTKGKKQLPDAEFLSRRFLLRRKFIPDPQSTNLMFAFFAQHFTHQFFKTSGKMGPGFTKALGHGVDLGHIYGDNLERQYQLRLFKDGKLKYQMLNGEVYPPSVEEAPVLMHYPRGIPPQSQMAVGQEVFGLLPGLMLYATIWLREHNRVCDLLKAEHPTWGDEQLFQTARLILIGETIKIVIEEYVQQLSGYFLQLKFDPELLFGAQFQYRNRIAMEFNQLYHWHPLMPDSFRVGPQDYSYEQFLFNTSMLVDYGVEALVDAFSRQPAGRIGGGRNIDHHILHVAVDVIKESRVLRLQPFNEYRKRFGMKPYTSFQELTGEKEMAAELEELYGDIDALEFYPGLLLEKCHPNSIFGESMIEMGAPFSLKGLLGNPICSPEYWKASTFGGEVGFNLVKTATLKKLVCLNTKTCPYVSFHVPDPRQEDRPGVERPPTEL

[2] = target: T2, Thromboxane-A synthase (Homo sapiens) (UniProt P24557); assay: Inhibition of TXS in human platelet rich plasma assessed as decrease in TXB2 production at 100 uM using arachidonic acid after 5 mins by ELISA
T2 sequence (whole entry): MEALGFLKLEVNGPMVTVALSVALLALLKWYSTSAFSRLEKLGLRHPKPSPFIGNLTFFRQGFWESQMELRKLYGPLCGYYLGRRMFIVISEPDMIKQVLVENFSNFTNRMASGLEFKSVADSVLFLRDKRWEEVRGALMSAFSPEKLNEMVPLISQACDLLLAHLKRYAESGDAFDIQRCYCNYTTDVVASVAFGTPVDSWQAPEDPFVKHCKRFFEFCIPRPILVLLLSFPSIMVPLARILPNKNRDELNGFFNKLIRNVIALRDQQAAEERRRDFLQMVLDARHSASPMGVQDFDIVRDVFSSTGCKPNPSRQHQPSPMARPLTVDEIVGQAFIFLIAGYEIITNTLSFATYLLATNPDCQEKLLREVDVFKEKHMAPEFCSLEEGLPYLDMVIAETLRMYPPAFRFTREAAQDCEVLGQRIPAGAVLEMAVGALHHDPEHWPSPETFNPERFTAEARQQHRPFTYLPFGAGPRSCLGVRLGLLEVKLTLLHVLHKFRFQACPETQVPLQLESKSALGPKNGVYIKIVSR

Platelet [3] = assay: Antiplatelet activity in human platelet rich plasma assessed as inhibition of ADP-induced platelet aggregation at 100 uM preincubated for 2 mins followed by ADP addition by turbidimetric method relative to control; assay type: cell-based
Platelet [4] = assay: Antiplatelet activity in human platelet rich plasma assessed as inhibition of collagen-induced platelet aggregation preincubated for 2 mins followed by collagen addition by turbidimetric method; assay type: cell-based
Platelet [5] = assay: Antiplatelet activity in human platelet rich plasma assessed as inhibition of epinephrine-induced platelet aggregation preincubated for 2 mins followed by epinephrine addition by turbidimetric method; assay type: cell-based
Platelet [6] = assay: Antiplatelet activity in human platelet rich plasma assessed as inhibition of arachidonic acid-induced platelet aggregation preincubated for 2 mins followed by arachidonic acid addition by turbidimetric method relative to control; assay type: functional, cell-based
Plasma [7] = assay: Change in activated partial thromboplastin time in human plasma at 100 uM incubated for 15 mins at room temperature and 2 mins at 37 degC in presence of CaCl2; assay type: ADME, cell-free
Platelet [8] = assay: Potency index, ratio of ozagrel IC50 to test compound IC50 for inhibition of arachidonic acid-induced platelet aggregation in human platelet rich plasma; assay type: functional
[9] = Hemolytic activity against human erythrocytes after 3 hrs relative to control; assay type: ADME, cell-based, Erythrocyte; conditions: read-out: Activity
Platelet [10] = assay: Antiplatelet activity in human platelet rich plasma assessed as inhibition of ADP-induced platelet aggregation preincubated for 2 mins followed by ADP addition by turbidimetric method; assay type: cell-based
[11] = target: T1, Prostaglandin G/H synthase 1; assay: Inhibition of ovine COX-1 assessed as reduction in PGH2 production at 100 uM using arachidonic acid as substrate preincubated for 5 mins followed by substrate and hematin addition measured after 2 mins by ELISA relative to control; conditions: sheep
Cytochrome P450 3A4 = Cytochrome P450 3A4 (Homo sapiens, UniProt P08684); assay: Inhibition of recombinant human CYP3A4 expressed in baculosomes using BOMR as substrate preincubated for 10 mins followed by substrate/NADP+ addition measured for 1 hr; assay type: ADME; conditions: human, recombinant enzyme, 1 h
[12] = target: Prostaglandin G/H synthase 1 (Homo sapiens, UniProt P23219); assay: Inhibition of COX1 in human platelet rich plasma assessed as decrease in PGE2 production at 100 uM using arachidonic acid as substrate after 5 mins by ELISA
Platelet [13] = assay: Drug uptake in human platelet assessed as co-localization with CD31 at 100 uM by epifluorescence assay; assay type: ADME, cell-based
Plasma [14] = assay: Change in prothrombin time in human plasma at 100 uM incubated for 15 mins at room temperature and 2 mins at 37 degC in presence of calcium thromboplastin; assay type: ADME, cell-free
Platelet [15] = assay: Potency index, ratio of aspirin IC50 to test compound IC50 for inhibition of arachidonic acid-induced platelet aggregation in human platelet rich plasma; assay type: functional
Platelet [16] = assay: Drug uptake in human platelet assessed as co-localization with CD31 at 100 uM by confocal microscopy analysis; assay type: ADME, cell-based
Blood = assay: Reduction of clot retraction in human whole blood after 2 hrs; assay type: ADME, tissue-based
[17] = Binding affinity to DOPC/DOPS large unilamellar vesicles assessed as blue shift at 100 uM by DAPI staining based fluorescence assay
Platelet [18] = assay: Antiplatelet activity in human platelet rich plasma assessed as inhibition of epinephrine-induced platelet aggregation at 100 uM preincubated for 2 mins followed by epinephrine addition by turbidimetric method relative to control; assay type: cell-based
[19] = target: T3, Prostaglandin G/H synthase 2 (Homo sapiens, UniProt P35354); assay: Inhibition of recombinant human COX-2 assessed as reduction in PGH2 production up to 100 uM using arachidonic acid as substrate preincubated for 5 mins followed by substrate and hematin addition measured after 2 mins by ELISA relative to control
T3 sequence (P35354 whole entry): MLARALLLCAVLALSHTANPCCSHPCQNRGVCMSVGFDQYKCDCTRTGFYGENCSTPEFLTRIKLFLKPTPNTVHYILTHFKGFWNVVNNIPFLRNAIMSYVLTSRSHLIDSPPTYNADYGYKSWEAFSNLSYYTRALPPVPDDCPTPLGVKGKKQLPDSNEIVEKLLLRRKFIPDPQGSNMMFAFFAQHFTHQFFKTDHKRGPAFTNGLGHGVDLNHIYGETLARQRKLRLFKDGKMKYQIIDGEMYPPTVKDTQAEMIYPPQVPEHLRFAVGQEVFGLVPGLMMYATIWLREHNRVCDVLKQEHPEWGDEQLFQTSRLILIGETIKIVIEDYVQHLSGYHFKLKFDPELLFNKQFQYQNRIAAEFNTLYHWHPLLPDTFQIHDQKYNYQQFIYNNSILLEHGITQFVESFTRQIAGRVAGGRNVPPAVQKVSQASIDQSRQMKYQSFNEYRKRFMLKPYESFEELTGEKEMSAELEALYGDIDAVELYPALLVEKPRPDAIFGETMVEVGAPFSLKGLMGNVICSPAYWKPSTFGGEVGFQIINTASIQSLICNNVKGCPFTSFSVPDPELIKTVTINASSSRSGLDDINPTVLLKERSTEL

Platelet [20] = assay: Antiplatelet activity in human platelet rich plasma assessed as inhibition of collagen-induced platelet aggregation at 100 uM preincubated for 2 mins followed by collagen addition by turbidimetric method relative to control; assay type: cell-based
Platelet [21] = assay: Antiplatelet activity in human platelet rich plasma assessed as inhibition of […]-induced platelet aggregation at 100 uM preincubated for 2 mins followed by […] addition by turbidimetric method; assay type: functional, cell-based
[22] = target: T1, Prostaglandin G/H synthase 1; assay: Inhibition of ovine COX-1 assessed as reduction in PGH2 production up to 100 uM using arachidonic acid as substrate preincubated for 5 mins followed by substrate and hematin addition measured after 2 mins by ELISA relative to control; conditions: sheep
[23] = target: T3, Prostaglandin G/H synthase 2; assay: Inhibition of recombinant human COX-2 assessed as reduction in PGH2 production at 100 uM using arachidonic acid as substrate preincubated for 5 mins followed by substrate and hematin addition measured after 2 mins by ELISA relative to control
Platelet [24] = assay: Antiplatelet activity in human platelet rich plasma assessed as inhibition of arachidonic acid-induced platelet aggregation at 100 uM preincubated for 2 mins followed by arachidonic acid addition by turbidimetric method relative to control; assay type: functional

Chain of Cytochrome P450 3A4 (P08684 whole entry): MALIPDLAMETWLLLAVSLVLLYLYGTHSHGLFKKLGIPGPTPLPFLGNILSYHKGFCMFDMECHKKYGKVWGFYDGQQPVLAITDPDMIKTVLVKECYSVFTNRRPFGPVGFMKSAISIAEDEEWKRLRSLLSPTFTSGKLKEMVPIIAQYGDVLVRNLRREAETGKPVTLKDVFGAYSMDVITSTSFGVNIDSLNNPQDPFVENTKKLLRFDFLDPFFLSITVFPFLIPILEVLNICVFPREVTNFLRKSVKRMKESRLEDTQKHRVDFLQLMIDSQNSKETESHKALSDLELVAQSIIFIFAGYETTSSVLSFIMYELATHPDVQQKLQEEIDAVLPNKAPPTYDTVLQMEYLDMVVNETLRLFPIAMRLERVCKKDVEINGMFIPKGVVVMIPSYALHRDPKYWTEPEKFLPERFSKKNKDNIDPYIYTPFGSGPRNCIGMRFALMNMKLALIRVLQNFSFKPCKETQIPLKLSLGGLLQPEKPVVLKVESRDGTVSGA
Chain of Prostaglandin G/H synthase 1 (Homo sapiens, UniProt P23219) (P23219 whole entry): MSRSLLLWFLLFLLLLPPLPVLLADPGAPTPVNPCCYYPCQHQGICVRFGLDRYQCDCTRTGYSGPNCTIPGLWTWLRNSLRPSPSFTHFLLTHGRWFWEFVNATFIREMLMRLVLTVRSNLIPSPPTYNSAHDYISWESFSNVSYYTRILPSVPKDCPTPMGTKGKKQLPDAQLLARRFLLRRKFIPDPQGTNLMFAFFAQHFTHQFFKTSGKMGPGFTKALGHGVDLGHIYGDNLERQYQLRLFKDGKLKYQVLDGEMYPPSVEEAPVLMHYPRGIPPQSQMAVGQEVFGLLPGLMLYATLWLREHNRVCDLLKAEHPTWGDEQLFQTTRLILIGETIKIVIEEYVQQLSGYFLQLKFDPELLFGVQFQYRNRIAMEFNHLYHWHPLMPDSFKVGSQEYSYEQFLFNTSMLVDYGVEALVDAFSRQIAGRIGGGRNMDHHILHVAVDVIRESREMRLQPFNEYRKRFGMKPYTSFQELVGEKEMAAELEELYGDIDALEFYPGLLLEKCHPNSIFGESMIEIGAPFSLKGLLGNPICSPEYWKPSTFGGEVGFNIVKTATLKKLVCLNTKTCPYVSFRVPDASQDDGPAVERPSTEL

## COc1ccc2c(c1)c(CC(=O)O)c(C)n2C(=O)c1ccc(Cl)cc1 [INDOMETHACIN]
[1]
  inhibition (INH): < 20%

## Cc1cc(C(=O)N/N=C/c2ccc(O)cc2)c2c(C)nn(-c3ccccc3)c2n1
[2]
  inhibition: Active
Platelet [3]
  inhibition at 100 µM: 3.22%
Platelet [4]
  IC50: > 100 µM
Platelet [5]
  IC50: > 100 µM
Platelet [6]
  IC50: 3.67 to 10.2 µM
Plasma [7]
  Activity: Non-Toxic
Platelet [8]
  Ratio IC50: <=10
[9]
  hemolysis at 3 h: 0%
Platelet [10]
  IC50: > 100 µM
[11]
  inhibition (INH): Active
Cytochrome P450 3A4
  inhibition (INH): Dose-dependent effect
[12]
  inhibition (INH): Not Active
Platelet [13]
  Drug uptake: Active
Plasma [14]
  Activity: Non-Toxic
Platelet [15]
  Ratio IC50: <=10
Platelet [16]
  Drug uptake: Active
Blood
  Activity: Non-Toxic
[17]
  Activity: Active
Platelet [18]
  inhibition at 100 µM: 3.3%
[19]
  inhibition (INH): Not Active
Platelet [20]
  inhibition at 100 µM: 64.6%
Platelet [21]
  inhibition: inactive
[22]
  inhibition (INH): Not Active
[23]
  inhibition (INH): Active
Platelet [24]
  inhibition at 100 µM: 96.8%
